# Experimental data taken from patent US20260262643A1, “HERBICIDAL BENZOXAZINES” (FMC CORPORATION, priority 2022, published 2026).
# Tests used:
# ragweed [1] = assay: Test C preemergence; type: in vivo, Ambrosia artemisiifolia; conditions: for Ragweed plant response rating: preemergence, 0 to 100 scale (0 no effect, 100 complete control)
# Summary of the method: (§1)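 Visual injury ratings on a 0–100 scale (100 = complete control) were made against untreated controls 10 days after treatment in the greenhouse. Compounds, formulated with surfactant in non-phytotoxic solvent, were sprayed on soil preemergence or onto one- to two-leaf plants 2–10 cm tall postemergence.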
# green foxtail [2] = assay: Test C preemergence; type: in vivo, Setaria viridis; conditions: for Foxtail, Green plant response rating: preemergence, 0 to 100 scale (0 no effect, 100 complete control)
# Summary of the method: as §1
# kochia [3] = assay: Test C preemergence; type: in vivo, Bassia scoparia; conditions: for Kochia plant response rating: preemergence, 0 to 100 scale (0 no effect, 100 complete control)
# Summary of the method: as §1
# blackgrass [4] = assay: Test C postemergence; type: in vivo, Alopecurus myosuroides; conditions: 10 days
# Summary of the method: as §1
# blackgrass [5] = assay: Test C preemergence; type: in vivo, Alopecurus myosuroides; conditions: for Plant response rating, Blackgrass: Preemergence; for Blackgrass plant response rating: preemergence
# Summary of the method: as §1
# horseweed = assay: Test C postemergence; type: in vivo, Erigeron canadensis; conditions: 10 days
# Summary of the method: as §1
# ryegrass, Italian [6] = assay: Test C postemergence; type: in vivo, Lolium multiflorum; conditions: 125 g ai/ha, 10 days
# Summary of the method: as §1
# wheat [7] = assay: Test C preemergence; type: in vivo, Triticum aestivum; conditions: for Wheat plant response rating: preemergence, 0 to 100 scale (0 no effect, 100 complete control)
# Summary of the method: as §1
# soybean [8] = assay: Test C postemergence; type: in vivo, Glycine max; conditions: 125 g ai/ha, 10 days
# Summary of the method: as §1
# green foxtail [9] = assay: Test C postemergence; type: in vivo, Setaria viridis; conditions: 10 days
# Summary of the method: as §1
# barnyardgrass [10] = assay: Test C preemergence; type: in vivo, Echinochloa crusgalli; conditions: for Plant response rating, Barnyardgrass: Preemergence; for Barnyardgrass plant response rating: preemergence
# Summary of the method: as §1
# barnyardgrass [11] = assay: Test C postemergence; type: in vivo, Echinochloa crusgalli; conditions: 10 days
# Summary of the method: as §1
# ryegrass, Italian [12] = assay: Test C preemergence; type: in vivo, Lolium multiflorum; conditions: for Ryegrass, Italian plant response rating: preemergence, 0 to 100 scale (0 no effect, 100 complete control)
# Summary of the method: as §1
# pigweed, palmer [13] = assay: Test C postemergence; type: in vivo, Amaranthus palmeri; conditions: 10 days
# Summary of the method: as §1
# wheat [14] = assay: Test C postemergence; type: in vivo, Triticum aestivum; conditions: 125 g ai/ha, 10 days
# Summary of the method: as §1
# corn [15] = assay: Test C postemergence; type: in vivo, Zea mays; conditions: 10 days
# Summary of the method: as §1
# kochia [16] = assay: Test C postemergence; type: in vivo, Bassia scoparia; conditions: 10 days
# Summary of the method: as §1
# pigweed, palmer [17] = assay: Test C preemergence; type: in vivo, Amaranthus palmeri; conditions: for Pigweed, Palmer plant response rating: preemergence, 0 to 100 scale (0 no effect, 100 complete control)
# Summary of the method: as §1
# oat, wild [18] = assay: Test C preemergence; type: in vivo, Avena fatua; conditions: for Oat, Wild plant response rating: preemergence, 0 to 100 scale (0 no effect, 100 complete control)
# Summary of the method: as §1
# sedge, umbrella = assay: Test D flooded paddy test; type: in vivo, Cyperus difformis; conditions: 250 g ai/ha, applied to paddy water, visual rating after 13 to 14 days, scale 0 to 100 (0 no effect, 100 complete control)
# Summary of the method: (§2)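 Rating scale 0–100 (0 no effect, 100 complete control), visual, versus controls. Readout at 13–14 days after in-water application to 2-leaf plants in pots flooded 3 cm deep.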
# ragweed [19] = assay: Test C postemergence; type: in vivo, Ambrosia artemisiifolia; conditions: 125 g ai/ha, 10 days
# Summary of the method: as §1
# galium = assay: Test C postemergence; type: in vivo, Galium aparine; conditions: 10 days
# Summary of the method: as §1
# barnyardgrass [20] = assay: Test D flooded paddy test; type: in vivo, Echinochloa crus-galli; conditions: 250 g ai/ha, applied to paddy water, visual rating after 13 to 14 days, scale 0 to 100 (0 no effect, 100 complete control)
# Summary of the method: as §2
# ducksalad = assay: Test D flooded paddy test; type: in vivo, Heteranthera limosa; conditions: 250 g ai/ha, applied to paddy water, visual rating after 13 to 14 days, scale 0 to 100 (0 no effect, 100 complete control)
# Summary of the method: as §2
# corn [21] = assay: Test C preemergence; type: in vivo, Zea mays; conditions: for Corn plant response rating: preemergence, 0 to 100 scale (0 no effect, 100 complete control)
# Summary of the method: as §1
# soybean [22] = assay: Test C preemergence; type: in vivo, Glycine max; conditions: for Soybean plant response rating: preemergence, 0 to 100 scale (0 no effect, 100 complete control)
# Summary of the method: as §1
# oat, wild [23] = assay: Test C postemergence; type: in vivo, Avena fatua; conditions: 10 days
# Summary of the method: as §1
# rice = assay: Test D flooded paddy test; type: in vivo, Oryza sativa; conditions: 250 g ai/ha, applied to paddy water, visual rating after 13 to 14 days, scale 0 to 100 (0 no effect, 100 complete control)
# Summary of the method: as §2
# [24] = 125 g ai/ha, postemergence, 0 to 100 scale, 0 no effect, 100 complete control
# [25] = Postemergence, 500 g ai/ha, visual 0 to 100 scale (0 no effect, 100 complete control)
# [26] = 500 g ai/ha, visual rating after 10 days, 0 to 100 scale (0 no effect, 100 complete control)
# [27] = Test C, 125 g ai/ha, 0 to 100 scale (0 no effect, 100 complete control)
# [28] = postemergence, 0 to 100 scale, 0 no effect, 100 complete control
# [29] = Preemergence, 125 g ai/ha, 0 to 100 scale, 0 no effect, 100 complete control
# [30] = 500 g ai/ha, postemergence, 0 to 100 scale (0 no effect, 100 complete control)
# [31] = Postemergence, 125 g ai/ha, 0 to 100 scale (0 no effect, 100 complete control)
# [32] = 500 g ai/ha, 0 to 100 scale (0 no effect, 100 complete control)
# [33] = 125 g ai/ha, 0 to 100 scale, 0 no effect, 100 complete control
# [34] = Postemergence, 0 to 100 scale (0 no effect, 100 complete control)
compound,measurement,setting,value
CCc1ncn(-c2ccc(OC)c(C(=S)N3C[C@H](C)Oc4c(C)cccc43)c2)n1 [Compound 271],Ragweed plant response rating,ragweed [1]; 500 g ai/ha,100
same,Ragweed plant response rating,"ragweed [1]; Test C, 125 g ai/ha",10
same,"Foxtail, Green plant response rating",green foxtail [2]; 500 g ai/ha,100
same,"Foxtail, Green plant response rating","green foxtail [2]; Test C, 125 g ai/ha",100
same,Kochia plant response rating,kochia [3]; 500 g ai/ha,100
same,Kochia plant response rating,"kochia [3]; Test C, 125 g ai/ha",30
same,"Plant response rating, Blackgrass",blackgrass [4]; [24],70
same,"Plant response rating, Blackgrass",blackgrass [4]; [25],90
same,"Plant response rating, Blackgrass",blackgrass [5]; [26],60
same,Blackgrass plant response rating,blackgrass [5]; [27],20
same,"Plant response rating, Horseweed",horseweed; [24],50
same,"Plant response rating, Horseweed",horseweed; [25],90
same,"Plant response rating, Ryegrass, Italian","ryegrass, Italian [6]; [28]",60
same,Wheat plant response rating,wheat [7]; 500 g ai/ha,80
same,Wheat plant response rating,"wheat [7]; Test C, 125 g ai/ha",20
same,"Plant response rating, Soybean",soybean [8]; [28],100
same,"Plant response rating, Foxtail, Green",green foxtail [9]; [24],90
same,"Plant response rating, Foxtail, Green",green foxtail [9]; [25],90
same,"Plant response rating, Barnyardgrass",barnyardgrass [10]; [26],100
same,Barnyardgrass plant response rating,barnyardgrass [10]; [27],100
same,"Plant response rating, Barnyardgrass",barnyardgrass [11]; [24],70
same,"Plant response rating, Barnyardgrass",barnyardgrass [11]; [25],90
same,"Ryegrass, Italian plant response rating","ryegrass, Italian [12]; 500 g ai/ha",90
same,"Ryegrass, Italian plant response rating","ryegrass, Italian [12]; Test C, 125 g ai/ha",80
same,"Plant response rating, Pigweed, Palmer","pigweed, palmer [13]; [24]",90
same,"Plant response rating, Wheat",wheat [14]; [28],70
same,"Plant response rating, Corn",corn [15]; [24],50
same,"Plant response rating, Corn",corn [15]; [25],90
same,"Plant response rating, Kochia",kochia [16]; [24],60
same,"Pigweed, Palmer plant response rating","pigweed, palmer [17]; 500 g ai/ha",100
same,"Pigweed, Palmer plant response rating","pigweed, palmer [17]; Test C, 125 g ai/ha",100
same,"Oat, Wild plant response rating","oat, wild [18]; 500 g ai/ha",80
same,"Oat, Wild plant response rating","oat, wild [18]; Test C, 125 g ai/ha",30
same,"Plant response rating, Sedge, Umbrella (Flood)","sedge, umbrella",100
same,"Plant response rating, Ragweed",ragweed [19]; [28],50
same,"Plant response rating, Galium",galium; [24],90
same,"Plant response rating, Galium",galium; [25],100
same,"Plant response rating, Barnyardgrass (Flood)",barnyardgrass [20],0
same,"Plant response rating, Ducksalad (Flood)",ducksalad,85
same,Corn plant response rating,corn [21]; 500 g ai/ha,0
same,Corn plant response rating,"corn [21]; Test C, 125 g ai/ha",0
same,Soybean plant response rating,soybean [22]; 500 g ai/ha,100
same,Soybean plant response rating,"soybean [22]; Test C, 125 g ai/ha",70
same,"Plant response rating, Oat, Wild","oat, wild [23]; [24]",80
same,"Plant response rating, Rice (Flood)",rice,10
COC[C@H]1CN(C(=O)c2cc(-n3cnc(C(C)(C)O)n3)ccc2OC)c2cccc(Cl)c2O1 [Compound 408],Ragweed plant response rating,ragweed [1]; 500 g ai/ha,90
same,"Plant response rating, Ragweed",ragweed [1]; [29],60
same,"Foxtail, Green plant response rating",green foxtail [2]; 500 g ai/ha,100
same,"Plant response rating, Foxtail, Green",green foxtail [2]; [29],100
same,Kochia plant response rating,kochia [3]; 500 g ai/ha,100
same,"Plant response rating, Kochia",kochia [3]; [29],70
same,"Plant response rating, Blackgrass",blackgrass [4]; [30],70
same,"Plant response rating, Blackgrass",blackgrass [4]; [31],0
same,Blackgrass plant response rating,blackgrass [5]; [32],80
same,"Plant response rating, Blackgrass",blackgrass [5]; [33],10
same,"Plant response rating, Horseweed",horseweed; [30],60
same,"Plant response rating, Horseweed",horseweed; [31],0
same,"Plant response rating, Ryegrass, Italian","ryegrass, Italian [6]; [34]",70
same,Wheat plant response rating,wheat [7]; 500 g ai/ha,60
same,"Plant response rating, Wheat",wheat [7]; [29],20
same,"Plant response rating, Soybean",soybean [8]; [34],100
same,"Plant response rating, Foxtail, Green",green foxtail [9]; [30],60
same,"Plant response rating, Foxtail, Green",green foxtail [9]; [31],20
same,Barnyardgrass plant response rating,barnyardgrass [10]; [32],100
same,"Plant response rating, Barnyardgrass",barnyardgrass [10]; [33],60
same,"Plant response rating, Barnyardgrass",barnyardgrass [11]; [30],60
same,"Plant response rating, Barnyardgrass",barnyardgrass [11]; [31],10
same,"Ryegrass, Italian plant response rating","ryegrass, Italian [12]; 500 g ai/ha",80
same,"Plant response rating, Ryegrass, Italian","ryegrass, Italian [12]; [29]",60
same,"Plant response rating, Pigweed, Palmer","pigweed, palmer [13]; [30]",80
same,"Plant response rating, Pigweed, Palmer","pigweed, palmer [13]; [31]",80
same,"Plant response rating, Wheat",wheat [14]; [34],30
same,"Plant response rating, Corn",corn [15]; [30],80
same,"Plant response rating, Corn",corn [15]; [31],10
same,"Plant response rating, Kochia",kochia [16]; [30],90
same,"Plant response rating, Kochia",kochia [16]; [31],70
same,"Pigweed, Palmer plant response rating","pigweed, palmer [17]; 500 g ai/ha",100
same,"Plant response rating, Pigweed, Palmer","pigweed, palmer [17]; [29]",100
same,"Oat, Wild plant response rating","oat, wild [18]; 500 g ai/ha",60
same,"Plant response rating, Oat, Wild","oat, wild [18]; [29]",30
same,"Plant response rating, Sedge, Umbrella (Flood)","sedge, umbrella",98
same,"Plant response rating, Ragweed",ragweed [19]; [34],50
same,"Plant response rating, Galium",galium; [31],100
same,"Plant response rating, Barnyardgrass (Flood)",barnyardgrass [20],10
same,"Plant response rating, Ducksalad (Flood)",ducksalad,90
same,Corn plant response rating,corn [21]; 500 g ai/ha,60
same,"Plant response rating, Corn",corn [21]; [29],0
same,Soybean plant response rating,soybean [22]; 500 g ai/ha,100
same,"Plant response rating, Soybean",soybean [22]; [29],80
same,"Plant response rating, Oat, Wild","oat, wild [23]; [30]",90
same,"Plant response rating, Oat, Wild","oat, wild [23]; [31]",30
same,"Plant response rating, Rice (Flood)",rice,15
